# Molecular target: AMPK
# Experiment: AMPK activation, enzyme-linked immunosorbent assay
# Format: biochemical
# Settings: Table 8, compounds of Table 1
# Procedure, shortened: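 Read-out: ELISA, used to detect compound-driven activation of AMPK.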
row,EC50 [nM],Structure (SMILES)
1,1000 to 5000,"O=C(N[C@H]1CCN(Cc2ccncc2)C1)c1cc2cc(OC3CCN(Cc4ccc(Cl)cc4)CC3)ccc2o1 [Compound 1-129, (S)-5-(1-(4-chlorobenzyl)piperidin-4-yloxy)-N-(1-(pyridin-4-ylmethyl)pyrrolidin-3-yl)benzofuran-2-carboxamide]"
2,100 to 500,"N#Cc1ccc(CN2CCC(NC(=O)c3cc4cc(O[C@@H]5CCN(Cc6ccc(-n7cccn7)cc6)C[C@H]5F)ccc4o3)CC2)cc1 [Compound 1-164, 5-((3,4-trans)-1-(4-(1H-pyrazol-1-yl)benzyl)-3-fluoropiperidin-4-yloxy)-N-(1-(4-cyanobenzyl)piperidin-4-yl)benzofuran-2-carboxamide]"
3,< 100,"N#Cc1ccc(CN2CCC(NC(=O)c3cc4cc(OC5CCN(Cc6ccc(C(F)(F)F)cc6)CC5)ccc4o3)CC2)cc1 [Compound 1-174, N-(1-(4-cyanobenzyl)piperidin-4-yl)-5-(1-(4-(trifluoromethyl)benzyl)piperidin-4-yloxy)benzofuran-2-carboxamide]"
4,100 to 500,"N#Cc1ccc(CN2CCC(Oc3ccc4oc(C(=O)NC5CCN(Cc6ccncc6)CC5)cc4c3)CC2)cc1 [Compound 1-79, 5-(1-(4-cyanobenzyl)piperidin-4-yloxy)-N-(1-(pyridin-4-ylmethyl)piperidin-4-yl)benzofuran-2-carboxamide]"

# Same assay, conditions: Table 10, compounds of Table 3
row,EC50 [nM],Structure (SMILES)
1,< 100,"N#Cc1ccc(C(=O)N2CC3CC2CN3C(=O)c2nc3ccc(OC4CCN(c5ccc(C(F)(F)F)cc5)CC4)cc3o2)cc1 (stereo not shown) [Compound 3-12, 4-(5-(6-(1-(4-(trifluoromethyl)phenyl)piperidin-4-yloxy)benzo[d]oxazole-2-carbonyl)-2,5-diazabicyclo[2.2.1]heptane-2-carbonyl)benzonitrile]"

# Same assay, conditions: Table 11, compounds of Table 4
row,EC50 [nM],Structure (SMILES)
1,500 to 1000,"N#Cc1ccc(CN2CC[C@H](NC(=O)c3ccc(C(=O)N4CCN(c5ccc(Cl)cc5)CC4)cn3)C2)cc1 [Compound 4-6, (S)-5-(4-(4-chlorophenyl)piperazine-1-carbonyl)-N-(1-(4-cyanobenzyl)pyrrolidin-3-yl)picolinamide]"

# Same assay, conditions: Table 12, compounds of Table 5
row,EC50 [nM],Structure (SMILES)
1,20000 to 50000,"COc1cc(C(=O)NC2CCN(Cc3ccccc3)CC2)ccc1OC1CCN(S(C)(=O)=O)CC1 [Compound 5-9, N-(1-benzylpiperidin-4-yl)-3-methoxy-4-(1-(methylsulfonyl)piperidin-4-yloxy)benzamide]"
2,< 1000,"N#Cc1ccc(CN2CCC(Oc3ccc(C(=O)NC4CCN(Cc5ccccc5)CC4)c(Cl)c3)CC2)cc1 [Compound 5-51, N-(1-benzylpiperidin-4-yl)-2-chloro-4-(1-(4-cyanobenzyl)piperidin-4-yloxy)benzamide]"
3,< 1000,"CC(C)(C)OC(=O)N1CCC(NC(=O)c2ccc(OC3CCN(Cc4ccc(C#N)cc4)CC3)cc2)CC1 [Compound 5-78, tert-butyl 4-(4-(1-(4-cyanobenzyl)piperidin-4-yloxy)benzamido)piperidine-1-carboxylate]"
4,50000 to 100000,"Cn1cncc1CN1CCC(Oc2ccc(C(=O)NC3CCN(Cc4ccccc4)CC3)cc2Cl)CC1 [Compound 5-5, N-(1-benzylpiperidin-4-yl)-3-chloro-4-(1-((1-methyl-1H-imidazol-5-yl)methyl)piperidin-4-yloxy)benzamide]"
5,10000 to 20000,"Cc1ccc(CN2CCC(Oc3ccc(C(=O)NCCCN4CCOCC4)cc3)CC2)cc1 [Compound 5-104, 4-(1-(4-methylbenzyl)piperidin-4-yloxy)-N-(3-morpholinopropyl)benzamide]"
6,< 1000,"N#Cc1ccc(CN2CCC(Oc3ccc(C(=O)NC4CCN(Cc5ccccc5)CC4)cc3Cl)CC2)cc1 [Compound 5-67, N-(1-benzylpiperidin-4-yl)-3-chloro-4-(1-(4-cyanobenzyl)piperidin-4-yloxy)benzamide]"
7,< 1000,"O=C(NC1CCN(Cc2ccccc2)CC1)c1cc(Cl)c(OC2CCN(Cc3cccc(C(F)(F)F)c3)CC2)c(Cl)c1 [Compound 5-62, N-(1-benzylpiperidin-4-yl)-3,5-dichloro-4-(1-(3-(trifluoromethyl)benzyl)piperidin-4-yloxy)benzamide]"
8,1000 to 10000,"O=C(NC1CCN(Cc2ccccc2)CC1)c1cccc(OC2CCN(Cc3ccc(C(F)(F)F)cc3)CC2)c1 [Compound 5-52, N-(1-benzylpiperidin-4-yl)-3-(1-(4-(trifluoromethyl)benzyl)piperidin-4-yloxy)benzamide]"
9,< 1000,"N#Cc1ccc(CN2CCC(NC(=O)c3ccc(OC4CCN(c5ccc(C(F)(F)F)cc5)CC4)c(F)c3)CC2)cc1 [Compound 5-43, N-(1-(4-cyanobenzyl)piperidin-4-yl)-3-fluoro-4-(1-(4-(trifluoromethyl)phenyl)piperidin-4-yloxy)benzamide]"

# Same assay, conditions: Table 13, compounds of Table 6
row,EC50 [nM],Structure (SMILES)
1,< 100,"CS(=O)(=O)c1cccc(CN2CCN(C(=O)c3ccc4oc(C(=O)NC5CCN(Cc6cccc(OC(F)(F)F)c6)CC5)cc4c3)CC2)c1 [Compound 6-151, 5-(4-(3-(methylsulfonyl)benzyl)piperazine-1-carbonyl)-N-(1-(3-(trifluoromethoxy)benzyl)piperidin-4-yl)benzofuran-2-carboxamide]"
2,100 to 1000,"N#Cc1ccc(CN2CCC(NC(=O)c3cc4cc(NC(=O)C5CCN(Cc6ccc(C#N)c(F)c6)CC5)ccc4o3)CC2)cc1 [Compound 6-48, 1-(4-cyano-3-fluorobenzyl)-N-(2-(1-(4-cyanobenzyl)piperidin-4-ylcarbamoyl)benzofuran-5-yl)piperidine-4-carboxamide]"
3,< 100,"N#Cc1ccc(CN2CCC(NC(=O)c3cc4cc(NC(=O)[C@H]5CC[C@@H](Oc6ccc(C#N)cc6)CC5)ccc4o3)CC2)cc1 [Compound 6-69, N-(1-(4-cyanobenzyl)piperidin-4-yl)-5-((1s,4s)-4-(4-cyanophenoxy)cyclohexanecarboxamido) benzofuran-2-carboxamide]"
4,1000 to 10000,"CS(=O)(=O)c1ccc(CN2CCN(C(=O)c3ccc4oc(C(=O)NC5CCN(Cc6ccc(S(=O)(=O)N7CCCC7)cc6)CC5)cc4c3)CC2)cc1 [Compound 6-159, 5-(4-(4-(methylsulfonyl)benzyl)piperazine-1-carbonyl)-N-(1-(4-(pyrrolidin-1-ylsulfonyl)benzyl)piperidin-4-yl)benzofuran-2-carboxamide]"
5,< 100,"N#Cc1ccc(CN2CCC(NC(=O)c3cc4cc(C(=O)N5CCC(Oc6ccc(F)cc6)CC5)ccc4o3)CC2)cc1 [Compound 6-19, N-(1-(4-cyanobenzyl)piperidin-4-yl)-5-(4-(4-fluorophenoxy)piperidine-1-carbonyl)benzofuran-2-carboxamide]"
6,< 100,"O=C(NC1CCN(Cc2ccc(OC(F)(F)F)c(F)c2)CC1)c1cc2cc(C(=O)N3CCN(c4cccc(C(F)(F)F)c4)CC3)ccc2o1 [Compound 6-139, N-(1-(3-fluoro-4-(trifluoromethoxy)benzyl)piperidin-4-yl)-5-(4-(3-(trifluoromethyl)phenyl)piperazine-1-carbonyl) benzofuran-2-carboxamide]"
7,100 to 1000,"N#Cc1ccc(CN2CCC(NC(=O)c3cc4cc(NC(=O)C5CCN(Cc6ccc(OC(F)(F)F)cc6)CC5)ccc4o3)CC2)cc1 [Compound 6-46, N-(2-(1-(4-cyanobenzyl)piperidin-4-ylcarbamoyl)benzofuran-5-yl)-1-(4-(trifluoromethoxy)benzyl) piperidine-4-carboxamide]"
8,< 100,"CS(=O)(=O)c1ccc(CN2CCN(C(=O)c3ccc4oc(C(=O)NC5CCN(Cc6ccc(-n7cccn7)cc6)CC5)cc4c3)CC2)cc1 [Compound 6-148, N-(1-(4-(1H-pyrazol-1-yl)benzyl)piperidin-4-yl)-5-(4-(4-(methylsulfonyl)benzyl)piperazine-1-carbonyl) benzofuran-2-carboxamide]"
9,< 100,"N#Cc1ccc(CN2CCC(NC(=O)c3cc4cc(C(=O)N5CCC(Oc6ccc(S(=O)(=O)C(F)(F)F)cc6)CC5)ccc4o3)CC2)cc1 [Compound 6-124, N-(1-(4-cyanobenzyl)piperidin-4-yl)-5-(4-(4-(trifluoromethylsulfonyl)phenoxy)piperidine-1-carbonyl)benzofuran-2-carboxamide]"
10,< 100,"N#Cc1ccc(CN2CCC(NC(=O)c3cc4cc(C(=O)N5CCN(Cc6ccc(F)cc6)CC5)ccc4o3)CC2)cc1 [Compound 6-11, N-(1-(4-cyanobenzyl)piperidin-4-yl)-5-(4-(4-fluorobenzyl)piperazine-1-carbonyl)benzofuran-2-carboxamide]"
11,100 to 1000,"COc1ccc(-n2cc(C(=O)Nc3ccc4oc(C(=O)NC5CCN(Cc6ccc(C#N)cc6)CC5)cc4c3)cn2)cc1 [Compound 6-59, N-(2-(1-(4-cyanobenzyl)piperidin-4-ylcarbamoyl)benzofuran-5-yl)-1-(4-methoxyphenyl)-1H-pyrazole-4-carboxamide]"

# Same assay, conditions: Table 14, compounds of Table 7
row,EC50 [nM],Structure (SMILES)
1,< 1000,"N#Cc1ccc(CN2CCC(NC(=O)c3ccc(C(=O)N4CCC(Oc5ccc(C#N)cc5)CC4)nc3)[C@@H](F)C2)cc1 (stereo partly drawn) [Compound 7-67, N-((3,4-trans)-l-(4-cyanobenzyl)-3-fluoropiperidin-4-yl)-6-(4-(4-cyanophenoxy)piperidine-1-carbonyl)nicotinamide]"
2,< 1000,"COc1ccc(C(=O)C2CCN(C(=O)c3ccc(C(=O)N[C@H]4CCN(Cc5ccc(C#N)cc5)C[C@@H]4F)cn3)CC2)cc1 (single isomer, unassigned) [Compound 7-107]"
3,< 1000,"COc1ccc(C(=O)C2CCN(C(=O)c3ccc(C(=O)NC4CCN(Cc5ccc(OC)c(F)c5)C[C@@H]4C)cn3)CC2)cc1 (stereo partly drawn) [Compound 7-96, N-((3,4-cis)-1-(3-fluoro-4-methoxybenzyl)-3-methylpiperidin-4-yl)-6-(4-(4-methoxybenzoyl)piperidine-1-carbonyl)nicotinamide]"
4,< 1000,"COc1ccc(C(=O)C2CCN(C(=O)c3ccc(C(=O)NC4CCN(Cc5ccc(C#N)cc5)CC4(C)C)cn3)CC2)cc1 (stereo not shown) [Compound 7-84, N-(1-(4-cyanobenzyl)-3,3-dimethylpiperidin-4-yl)-6-(4-(4-methoxybenzoyl)piperidine-1-carbonyl)nicotinamide]"
5,< 1000,"COc1ccc(C(=O)C2CCN(C(=O)c3ccc(C(=O)NC4CCN(Cc5ccc(OC(F)(F)F)cc5)C[C@@H]4C)cn3)CC2)cc1 (stereo partly drawn) [Compound 7-94, 6-(4-(4-methoxybenzoyl)piperidine-1-carbonyl)-N-((3,4-cis)-3-methyl-1-(4-(trifluoromethoxy)benzyl)piperidin-4-yl)nicotinamide]"

# From patent US9409884B2 (Rigel Pharmaceuticals, Inc., priority 2012, dated 2016)
